Source: article PMC6930570, “2-Arylidene-1-indandiones as Pleiotropic Agents with Antioxidant and Inhibitory Enzymes Activities” (Molecules, 2019)

How the values were obtained:
soybean lipoxygenase = target: T1, soybean lipoxygenase (Glycine max, UniProt P08170); test: Soybean lipoxygenase inhibition in vitro; assay type: biochemical; conditions: sodium linoleate substrate, no = no action under the experimental conditions; for inhibition at 100 µM: read-out: LOX (% Inhibition 100 µM)
T1 construct: purchased Sigma Chemical, Co. (St. Louis)
T1 sequence (P08170 1-839): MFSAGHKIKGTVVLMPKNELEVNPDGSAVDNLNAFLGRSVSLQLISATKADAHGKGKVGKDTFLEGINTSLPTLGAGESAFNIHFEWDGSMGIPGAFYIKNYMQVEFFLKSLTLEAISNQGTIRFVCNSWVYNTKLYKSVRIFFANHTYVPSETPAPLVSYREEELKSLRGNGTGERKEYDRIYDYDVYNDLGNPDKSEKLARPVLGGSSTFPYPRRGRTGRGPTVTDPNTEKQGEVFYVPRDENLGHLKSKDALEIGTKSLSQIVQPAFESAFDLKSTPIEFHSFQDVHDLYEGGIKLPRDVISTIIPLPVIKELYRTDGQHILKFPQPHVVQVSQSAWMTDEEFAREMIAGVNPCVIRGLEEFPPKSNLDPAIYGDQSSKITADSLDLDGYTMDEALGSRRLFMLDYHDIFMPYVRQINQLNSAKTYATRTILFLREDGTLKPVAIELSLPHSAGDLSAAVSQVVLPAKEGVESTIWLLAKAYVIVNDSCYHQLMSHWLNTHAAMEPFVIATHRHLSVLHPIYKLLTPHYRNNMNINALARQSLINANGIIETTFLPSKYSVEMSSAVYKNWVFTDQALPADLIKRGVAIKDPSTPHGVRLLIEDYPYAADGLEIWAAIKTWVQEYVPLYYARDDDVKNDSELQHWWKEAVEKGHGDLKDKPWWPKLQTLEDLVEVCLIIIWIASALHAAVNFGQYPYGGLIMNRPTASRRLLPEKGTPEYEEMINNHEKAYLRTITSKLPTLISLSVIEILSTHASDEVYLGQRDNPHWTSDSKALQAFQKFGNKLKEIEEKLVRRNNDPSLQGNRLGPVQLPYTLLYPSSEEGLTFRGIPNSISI
Procedure: Thus, we used soybean LOX in our in vitro experiments.
In vitro study was performed as reported previously by our group. Sodium linoleate (0.1 mM) and 0.2 mL of enzyme solution (1/9 × 104 w/v in saline) were used for the incubation of the tested derivatives.

[1] = Inhibition of linoleic acid peroxidation induced by AAPH; assay type: biochemical; conditions: no = no action under the experimental conditions
Excerpt: In the water soluble 2,2′-azobis(2-amidinopropane) hydrochloride (AAPH) the free radicals are produced in vitro through spontaneous thermal decomposition resembling to lipid peroxidation in cells due to the action of the peroxyl radicals. […] Compounds 11, 5, 4 and 3 presented no activity under the experimental conditions. From the experimental results it can be concluded that the 3,5-di-tert-butyl-group offers protection against lipid peroxidation. Electronic parameters expressed by the highest occupied molecular orbital (HOMO) describes better the biological activity (Equation (2)). log AAPH % = −22.042(± 8.731) HOMO − 4.853 (2.622)(2) n = 8, r = 0.930, r^2 = 0.864, q^2 = 0.567, s = 0.146, F1,8 = 5.783, α = 0.1
The oxidation reaction was started with 2,2′-Azobis(2-amidinopropane) dihydrochloride (AAPH) as a free radical initiator. Linoleic acid sodium salt was oxidized at 234 nm to a conjugated diene hydroperoxide resulting an increased absorption. Trolox was used as reference compound (93%) (Table 3).

[2] = Experimental lipophilicity as RM values by RPTLC; assay type: physicochemical; set-up: key: RM = log[(1/Rf) − 1], from Rf values by RPTLC; conditions: methanol/water 70/30, 24 °C, average of at least 5 measurements
Excerpt: Lipophilicity is a physicochemical parameter indicating the relationship of a drug to its biological activity. It affects ligand-target binding interactions, solubility, ADME (absorption, distribution, bioavailability, metabolism, and elimination) and toxicological effects. RPTLC (reverse phase thin layer chromatography) method was used for the experimental determination, as RM values. The RPTLC method is considered a secure, rapid and appropriate method for expressing the lipophilic character of a compound (Table 1).
Reversed phase TLC (RPTLC) was performed on silica gel plates impregnated with 5% (v/v) liquid paraffin in light petroleum ether. The mobile phase was a methanol/water mixture (70/30, v/v). The plates were developed in closed chromatography tanks saturated with the mobile phase at 24 °C. Spots were detected under UV light. Five individual measurements of Rf values were recorded and used for the determination of RM using the equation RM = log [(1/Rf) − 1] [59, 60, 62] (Table 2).

trypsin = test: In vitro inhibition of trypsin induced proteolysis; assay type: biochemical; conditions: bovine albumin substrate, no = no action under the experimental conditions
Procedure: Serine proteases are implicated in the pathophysiology of inflammatory diseases and trypsin is well known years ago [66]. Trypsin has been associated with host defense reactions and tissue damage. In this study, the novel derivatives have been evaluated towards trypsin and thrombin. Compounds 8 and 9 present high activity.
The Kunitz method was used after modification using bovine albumin was used as substrate for trypsin. In this assay, first 200 μL of 0.075 mg/mL trypsin and 780 μL of phosphate buffer pH 7.6 including the tested compounds (20 μL in DMSO, final concentration 100 μM) were pre-incubated at 37 °C for 20 min and then added 1 mL of albumin (stock solution 6 g/100 mL in phosphate buffer 0.1 M, pH 7.6) and incubated at 37 °C for 30 min. Secondly 1mLof 5% trichloroacetic acid was added to the incubated solution to stop the enzyme’s reaction and allowed to set at room temperature for 1 h. Then the solution was filtered, and the absorption of the filtrate was measured at 280 nm using salicylic acid as a reference compound [61] (Table 3).

[3] = Superoxide anion radical scavenging activity (PMS/NADPH/NBT); assay type: biochemical; conditions: 100 μM (stated for compound 3)
Procedure: The compounds have been tested to scavenge superoxide anion radicals. However, no results were recorded under the experimental conditions.
The superoxide anion producing system was set up by mixing PMS, NADPH, and air oxygen. The production of superoxide anion was estimated by the nitrobluetetrazole NBT method. The reaction mixture containing compounds, 3 μM PMS, 78 μM NADPH, and 25 μM NBT in […] phosphate buffer pH 7.4 was incubated for 2 min at room temperature and the absorption was measured at 560 nm against a blank containing PMS. The tested compounds were pre-incubated for 2 min before adding NADPH. Caffeic acid was used as an appropriate standard (76%).

SMILES	inhibition at 100 µM (soybean lipoxygenase)	AAPH% 100 µM (anti-lipid peroxidation) [1]	melting point	RM (±SD) [2]	Iptr% 100 µM (inhibition of trypsin induced proteolysis) (trypsin)	superoxide anion scavenging activity [3]	LOX (% Inhibition 100 µM) (soybean lipoxygenase)
O=C1C(=Cc2c[nH]c3ccccc23)C(=O)c2ccccc21 [Compound 12, (Z)-2-((1H-indol-3-yl)methylene)-1H-indene-1,3(2H)-dione]	58.9%	31%	283 to 285 °C	−0.134 ± 0.02	do not present any activity and no		
CN(C)c1ccc(/C=C\C=C2C(=O)c3ccccc3C2=O)cc1 [Compound 6, (Z)-2-(3-(4-(dimethylamino)phenyl)allylidene)-1H-indene-1,3(2H)-dione]	17.7%	9%	85 to 87 °C	−0.527 ± 0	29%		
O=C1C(=Cc2ccc(OCc3ccc(Br)cc3)cc2)C(=O)c2ccccc21 [Compound 8, (Z)-2-(4-((4-bromobenzyl)oxy)benzylidene)-1H-indene-1,3(2H)-dione]	3.6%	79%	222 to 224 °C		85%		
Cc1ccc(C=C2C(=O)c3ccccc3C2=O)o1 [Compound 3, (Z)-2-((5-methylfuran-2-yl)methylene)-1H-indene-1,3(2H)-dione]	35.7%	no activity and no		0.014 ± 0	17%	20%	
CC(C)(C)c1cc(C=C2C(=O)c3ccccc3C2=O)c(O)c(C(C)(C)C)c1 [Compound 9, (Z)-2-(3,5-di-tert-butyl-2-hydroxybenzylidene)-1H-indene-1,3(2H)-dione]		96%	52 to 54 °C	−1.038 ± 0	98%		no
O=C1C(=Cc2ccccc2)C(=O)c2ccccc21 [Compound 4, 2-benzylidene-1H-indene-1,3(2H)-dione]	35%	no activity and no		−0.615 ± 0.02	4%		
O=C1C(=Cc2cccc(Oc3ccccc3)c2)C(=O)c2ccccc21 [Compound 7, (Z)-2-(3-phenoxybenzylidene)-1H-indene-1,3(2H)-dione]	67.3%	82%	143 to 145 °C	−0.196 ± 0.02	33%		
Cc1ccsc1C=C1C(=O)c2ccccc2C1=O [Compound 2, (Z)-2-((3-methylthiophen-2-yl)methylene)-1H-indene-1,3(2H)-dione]	45%	92%	171 to 172 °C	0.031 ± 0	do not present any activity and no		
CC(C)(C)c1cc(C=C2C(=O)c3ccccc3C2=O)cc(C(C)(C)C)c1O [Compound 10, (Z)-2-(3,5-di-tert-butyl-4-hydroxybenzylidene)-1H-indene-1,3(2H)-dione]		85%	98 to 100 °C	−0.103 ± 0	do not present any activity and no		no
